Test results reported in US12551499B2 (Atea Pharmaceuticals, Inc., priority 2020, dated 2026).
Several values for one entry are separate records, joined by “and”; a condition that tells them apart may be missing. Equal entries are not always repeated. Where two headings read alike, the source gives them in different places.

Assays:
[1] = test system: human nasal epithelial cells; settings: 10 μM
[2] = test system: human bronchial epithelial cells; settings: 10 μM
in vivo = settings: male, cynomolgus monkey, Mean Intracellular Compound 1-6 Concentration
[3] = male, cynomolgus monkey, in vivo, 12 h
[4] = Plasma PK in non-human primates after oral Compound 2A; settings: monkey plasma, oral Compound 2A 60 mg/kg then 30 mg/kg every 12 h, steady state
Huh7 cells = test: Visual cytotoxicity in uninfected Huh7 cells; type: cell-based, human
Procedure: (§1) Huh7 cells were seeded in 96-well plates at a concentration that yielded 80-100% confluent monolayers in each well after overnight incubation. Compound 1A was dissolved in DMSO to 10 mg/mL and 8 half-log serial dilutions in test medium (modified Eagle's medium containing 5% fetal bovine serum and […] gentamicin) were prepared with the highest concentration of 50 μg/mL. 100 μL of each concentration were added to 5 test wells on the 96-well plate and 3 wells were infected with test virus in test medium (≤100 CCID50 per well). An equivalent amount of test medium was added to the remaining test wells to assess toxicity to uninfected cells. Six wells were infected to serve as untreated virus controls. Media only was added to 6 wells to serve as cell controls. Plates were incubated at 37° C. in a humidified 5% CO2 atmosphere until cytopathic effect (CPE) was observed microscopically.

[5] = test system: human bronchial epithelial cells; test: Triphosphate formation in human bronchial epithelial cells; settings: human nasal and bronchial epithelial cells, up to 100 μM
SARS-CoV-2 (WA1) = test: Virus yield reduction assay, SARS-CoV-2 in dNHBE / HAE cells; type: cell-based
Procedure: The antiviral activity of Compound 1A was next evaluated against SARS-CoV-2 (WA1) using differentiated normal human bronchial epithelial (dNHBE; HAE (human airway epithelial) cells made to order by MatTek Corporation (Ashland, MA).
Cell Culture: dNHBE cells were grown on 6 mm mesh disks and arrived in kits with either 12- or 24-well transwell inserts. During transportation the tissues were stabilized on a sheet of agarose, which was removed upon receipt. One insert was estimated to consist of approximately 1.2×10^6 cells. Kits of cell inserts (EpiAirway™ AIR-100, AIR-112) originated from a single donor, #9831, a healthy, non-smoking person. The cells have unique properties in forming layers, the apical side of which is exposed only to air and that creates a mucin layer. Upon arrival, the cell transwell inserts were immediately transferred to individual wells of a 6-well plate according to manufacturer's instructions, and 1 mL of MatTek's proprietary culture medium (AIR-100-MM) was added to the basolateral side, whereas the apical side was exposed to a humidified 5% CO2 environment. Cells were cultured at 37° C. for one day before the start of the experiment. After the 24 hour equilibration period, the mucin layer, secreted from the apical side of the cells, was removed by washing with 400 μL pre-warmed 30 mM HEPES buffered saline solution 3×. Culture medium was replenished following the wash steps.
Viruses: Virus was diluted in AIR-100-MM medium before infection, yielding a multiplicity of infection (MOI) of approximately 0.0015 CCID50 per cell.
The cells were maintained at the air-liquid interface.
Determination of virus titers from each treated cell culture: Vero 76 cells were seeded in 96-well plates and grown overnight (37° C.) to confluence. Samples containing virus were diluted in 10-fold increments in infection medium and 200 μL of each dilution transferred into respective wells of a 96-well microtiter plate. Four microwells were used for each dilution to determine 50% viral endpoints. After 5 days of incubation, each well was scored positive for virus if any cytopathic effect (CPE) was observed as compared with the uninfected control and counts were confirmed for endpoint on days 6 and 7. […] The day 5 values were reported. Untreated, uninfected cells were used as the cell controls.
The antiviral activities of test compounds were evaluated against SARS-CoV-2 (USA-WA1/2020) using made to order human airway epithelial (HAE) cells.
Cell Culture: HAE cells were grown on 6 mm mesh disks and arrived in kits with either 12- or 24-well transwell inserts. During transportation the tissues were stabilized on a sheet of agarose, which was removed upon receipt. One insert was estimated to consist of approximately 1.2×10^6 cells. Kits of cell inserts (EpiAirway™ AIR-100 or AIR-112) originated from a single donor, #9831, a healthy, non-smoking person. The cells form polarized monolayers, the apical side of which is exposed to air and creates a mucin layer. Upon arrival, the cell transwell inserts were immediately transferred to individual wells of a 6-well plate according to the manufacturer's instructions, and 1 mL of MatTek's proprietary culture medium (AIR-100-MM) was added to the basolateral side, whereas the apical side was exposed to a humidified 5% CO2 environment. Cells were cultured at 37° C. in a humidified atmosphere containing 5% CO2 for one day before the start of the experiment. After the 24-h equilibration period, the mucin layer, secreted from the apical side of the cells, was removed by washing with 400 μL pre-warmed 30 mM HEPES buffered saline solution 3×. Culture medium was replenished following the wash steps.
Viruses: Virus was diluted in AIR-100-MM medium before infection to yield a MOI when added to cultures of approximately 0.0015 CCID50 per cell.
Select compounds of the present invention were tested in a SARS-CoV-2 assay. […]

[6] = test system: human coronavirus alpha-229E; test: Visual CPE assay, coronavirus alpha-229E in Huh7 cells; type: cell-based; settings: Huh-7
Procedure: as §1

[7] = test system: human airway epithelial (HAE) cells
RD cells = settings: human
MERS-CoV (EMC) = type: cell-based; settings: MERS-CoV versus other CoVs
[8] = test system: human airway epithelial (HAE) cells; test: Cytotoxicity in dNHBE / HAE cells by visual inspection; settings: visual toxicity, Table 11

For `C[C@@]1(F)[C@H](O)[C@@H](COP(=O)(O)OP(=O)(O)OP(=O)(O)O)O[C@H]1n1cnc2c(=O)[nH]c(N)nc21` [Compound 1-6], the “Mean Intracellular Compound 1-6 Concentration” value ([1]; 0 h) was 236 µM, the “Mean Intracellular Compound 1-6 Concentration” value ([1]; 15 h) was 204 µM and the “Mean Intracellular Compound 1-6 Concentration” value ([1]; 24 h) was 170 µM. For the same compound, the “Mean Intracellular Compound 1-6 Concentration” value ([1]; 48 h) was 107 µM, the “Mean Intracellular Compound 1-6 Concentration” value ([1]; 72 h) was 73.8 µM and the “Mean Intracellular Compound 1-6 Concentration” value ([2]; 0 h) was 698 µM. The “Mean Intracellular Compound 1-6 Concentration” value ([2]; 15 h) was 560 µM, the “Mean Intracellular Compound 1-6 Concentration” value ([2]; 24 h) was 462 µM and the “Mean Intracellular Compound 1-6 Concentration” value ([2]; 48 h) was 290 µM. The “Mean Intracellular Compound 1-6 Concentration” value ([2]; 72 h) was 217 µM, the concentration at 24 h (in vivo) was 32 nM and the “Mean Intracellular Compound 1-6 Concentration” value [3] was 0.089 µM.

In the case of `CNc1nc(N)nc2c1ncn2[C@@H]1O[C@H](CO[P@@](=O)(N[C@@H](C)C(=O)OC(C)C)Oc2ccccc2)[C@@H](O)[C@@]1(C)F` [Compound 1A], the AUC0-12 h [4] is reported as 0.44 µM·h, the Cmax [4] is reported as 640 nM and the T1/2 [4] is reported as 44.4 min. For the same compound, the Tmax [4] was 30 to 60 min, the cytotoxicity (Huh-7 cells) was “No cytotoxicity was detected” and the CC50 (Huh-7 cells; human) was over 50000 nM. For the same compound, the CC50 (Huh7 cells; Alpha-229E row) was over 50000 nM, the CC50 (Huh7 cells; Beta-OC43 row) was over 50000 nM and the toxicity [5] was “no toxicity was observed”. For the same compound, the “replicate EC90 determinations” value (SARS-CoV-2 (WA1); SARS-CoV-2 (WA1) in dNHBE, single replicates) was 0.41 µg/mL, the EC90 (SARS-CoV-2 (WA1); SARS-CoV-2 in HAE (dNHBE) cells, Table 11, read-out: VYR Assay EC90) was 460 nM and 520 nM and the EC90 (SARS-CoV-2 (WA1); SARS-CoV-2 in HAE, footnotes f, g, h of Table 5, read-out: EC90, single replicates) was 700 nM and 420 nM. For the same compound, the EC90 (SARS-CoV-2 (WA1); Severe acute respiratory syndrome coronavirus 2, HAE, SARS-CoV-2 in HAE (dNHBE) cells, Table 11, read-out: VYR Assay EC90) was 630 nM, the EC50 [6] was 1000 nM and the “VYR Assay CC50” value [7] was “no visual tox no visual tox no visual tox”. For the same compound, the CC50 (RD cells) was over 86000 nM and the “difference of activity between MERS-CoV and other CoVs” value (MERS-CoV (EMC)) was 30 fold.

For `CCC(CC)COC(=O)[C@H](C)N[P@](=O)(OC[C@H]1O[C@@](C#N)(c2ccc3c(N)ncnn23)[C@H](O)[C@@H]1O)Oc1ccccc1` [Remdesivir], the “VYR Assay CC50” value [8] was “no visual tox no visual tox no visual tox no visual tox”.
